# Assays:
# [1] = Kinetic solubility in FaSSIF (pH 6.5) at 37° C.; assay type: physicochemical; conditions: FaSSIF pH 6.5, 37° C., as obicetrapib free acid
# Source text: (§1) The amorphous form has a higher kinetic solubility and dissolution rate than the crystalline form (and by extension obicetrapib itself). Both crystalline and amorphous obicetrapib hemicalcium kinetic solubility determinations were made in biorelevant media at different pHs, namely at about 5.0 (FeSSIF conditions) and at pH of about 6.5 (FaSSIF) conditions as set forth in Example 11.28.
# The concentrations in Table X are those of obicetrapib (i.e., the free acid).
# (§2) The solids were magnetically stirred at 600 RPM in a shaker bath and samples were drawn with a 1.0 ml syringe at T=15 mins, 30 mins, 60 mins, 90 mins and 120 mins. The solubility was measured using HPLC method provided by the client. The compound was added to 4.0 ml glass vials at approximately 20.0 mg/ml. Samples were agitated with a vortex mixer for about 5 minutes to ensure the presence of undissolved excess powder. The sample collected at each time point was centrifuged at 1200 RPM, filtered with 0.45 μm Polytetrafluoroethylene (PTFE) filters and diluted with methanol before HPLC analysis. In order to minimize the effect of potential analyte adsorption on the filter, the initial 0.5 mL of supernatant passing through the filter was discarded prior to collecting sample for HPLC analysis.
# [2] = Kinetic solubility in FeSSIF (pH 5.0) at 37° C.; assay type: physicochemical; conditions: FeSSIF pH 5.0, 37° C., as obicetrapib free acid
# Source text: as §1
# The concentrations in Table W are those of obicetrapib (i.e., the free acid).
# as §2
# [3] = ROSE2 phase 2b clinical trial - safety and tolerability (adverse events); assay type: in vivo, human; conditions: Safety Population
# Protocol: (§3) The exploratory objectives of this study include the following: • To evaluate the effect of obicetrapib 10 mg+ezetimibe 10 mg combination therapy and obicetrapib 10 mg monotherapy, when used as an adjunct to high-intensity statin therapy, on non-high-density lipoprotein cholesterol (non-HDL-C), very low-density lipoprotein cholesterol (VLDL-C), HDL-C, TG, ApoE, Lp(a), and HDL-ApoE at Day 84; • To evaluate the effect of obicetrapib 10 mg+ezetimibe 10 mg combination therapy and obicetrapib 10 mg monotherapy, when used as an adjunct to high-intensity statin therapy, on the proportion of participants achieving predefined LDL-C targets at Day 84; • To assess the mean trough plasma levels of obicetrapib 10 mg+ezetimibe 10 mg combination therapy and obicetrapib 10 mg monotherapy at steady state on Days 28, 84, and 112; and • To evaluate the safety and tolerability profiles of obicetrapib 10 mg+ezetimibe 10 mg combination therapy and obicetrapib 10 mg monotherapy, when used as an adjunct to high-intensity statin therapy, assessed by clinical laboratory values and incidence of AEs.
# The safety and tolerability profile of obicetrapib 10 mg, both in combination with ezetimibe 10 mg and as monotherapy, will be assessed by clinical laboratory assessments (chemistry and hematology), vital signs, physical examinations, and the incidence of AEs.
# An AE can therefore be any unfavorable and/or unintended sign (including an abnormal laboratory finding), symptom, or disease temporally associated with the use of an investigational medicinal product, whether or not related to the investigational medicinal product. All AEs, including observed or volunteered problems, complaints, or symptoms, are to be recorded on the appropriate eCRF.
# AEs, which include clinical laboratory assessment variables, will be monitored and documented from the time of first dose of study treatment until completion of Visit 5. Participants should be instructed to report any AE that they experience to the Investigator, whether or not they think the event is due to study drug. Beginning at the date of the first dose of study treatment, Investigators should make an assessment for AEs at each visit and record the event on the appropriate AE eCRF.
# The Investigator will assess the severity (intensity) of each AE as mild, moderate, or severe, and will also categorize each AE as to its potential relationship to study drug using the categories of yes or no.
# • Mild—An event that is easily tolerated and generally not interfering with normal daily activities. • Moderate—An event that is sufficiently discomforting to interfere with normal daily activities. • Severe—An event that is incapacitating with inability to work or perform normal daily activities.
# An AE or adverse reaction is considered serious if, in the view of either the Investigator or Sponsor, it results in any of the following outcomes: • Death; • A life-threatening AE;
# The Safety Population will include all participants who receive at least 1 dose of any study drug. Treatment classification will be based on the actual treatment received. The Safety Population will be the primary population used for the safety analyses.
# Lp(a) = assay: ROSE2 phase 2b clinical trial - Lp(a); assay type: in vivo, human; conditions: Exploratory Population
# Protocol: as §3
# This study will be a placebo-controlled, double-blind, randomized, Phase 2 study to evaluate the efficacy, safety, and tolerability of obicetrapib 10 mg, both in combination with ezetimibe 10 mg and as monotherapy, as an adjunct to high-intensity statin therapy. This study will take place at approximately 20 sites in the United States.
# Up to 2 weeks after the Screening Visit, participants will return to the site on Day 1 (Visit 2) and confirm study eligibility before being randomized and beginning treatment. Approximately 114 eligible participants (38 participants per treatment group) will be randomized in a 1:1:1 ratio to 1 of the following treatment groups: • Combination therapy: Obicetrapib 10 mg+ezetimibe 10 mg (administered as one 10 mg obicetrapib tablet and one 10 mg ezetimibe capsule); • Obicetrapib monotherapy: Obicetrapib 10 mg (administered as one 10 mg obicetrapib tablet and 1 placebo capsule); or • Placebo (administered as 1 placebo tablet and 1 placebo capsule).
# The exploratory efficacy endpoints include the following: • Percent change from Day 1 to Day 84 in non-HDL-C, VLDL-C, HDL-C, TG, ApoE, Lp(a), and HDL-ApoE for the obicetrapib 10 mg+ezetimibe 10 mg combination treatment group compared with the placebo group and for the obicetrapib 10 mg monotherapy treatment group compared with the placebo group; and • Proportion of participants at Day 84 that achieve LDL-C<2.6 mmol/L (<100 mg/dL), LDL-C<1.8 mmol/L (<70 mg/dL), and LDL-C<1.3 mmol/L (<50 mg/dL) for the obicetrapib 10 mg+ezetimibe 10 mg combination treatment group compared with the placebo group and for the obicetrapib 10 mg monotherapy treatment group compared with the placebo group.
# Blood samples for the lipid profile must be obtained under fasting conditions (ie, after the participant has fasted for approximately 10 hours). For the purposes of this study, fasting will be defined as nothing by mouth except water and any essential medications. If a participant is not fasting, the Investigator should reschedule the visit as soon as possible. LDL-C level will be calculated using the Friedewald equation unless TG≥400 mg/dL or LDL-C≤50 mg/dL; in both cases, LDL-C level will be measured directly by preparative ultracentrifugation, also referred to as beta quantification. Additionally, LDL-C will be measured by preparative ultracentrifugation, also referred to as beta quantification, at baseline (Visit 2) and at the end of the 12-week Treatment Period (Visit 4) for all participants.
# The Modified ITT (mITT) Population will include all participants in the ITT Population who receive at least 1 dose of any study drug and have a baseline value for the LDL-C assessment. […]
smiles,measurement,setting,value
CCOC(=O)N1c2ccc(C(F)(F)F)cc2[C@@H](N(Cc2cc(C(F)(F)F)cc(C(F)(F)F)c2)c2ncc(OCCCC(=O)[O-])cn2)C[C@H]1CC.CCOC(=O)N1c2ccc(C(F)(F)F)cc2[C@@H](N(Cc2cc(C(F)(F)F)cc(C(F)(F)F)c2)c2ncc(OCCCC(=O)[O-])cn2)C[C@H]1CC.[Ca+2] [Amorphous obicetrapib hemicalcium Batch #1],Concentration in Solution,[1]; 15 mins,60 µg/mL
same,Concentration in Solution,[1]; 30 mins,99 µg/mL
same,Concentration in Solution,[1]; 60 mins,163 µg/mL
same,Concentration in Solution,[1]; 90 mins,201 µg/mL
same,Concentration in Solution,[1]; 120 mins,244 µg/mL
same,Concentration in Solution,[2]; 15 mins,520 µg/mL
same,Concentration in Solution,[2]; 30 mins,661 µg/mL
same,Concentration in Solution,[2]; 60 mins,675 µg/mL
same,Concentration in Solution,[2]; 90 mins,696 µg/mL
same,Concentration in Solution,[2]; 120 mins,675 µg/mL
CCOC(=O)N1c2ccc(C(F)(F)F)cc2[C@@H](N(Cc2cc(C(F)(F)F)cc(C(F)(F)F)c2)c2ncc(OCCCC(=O)[O-])cn2)C[C@H]1CC.CCOC(=O)N1c2ccc(C(F)(F)F)cc2[C@@H](N(Cc2cc(C(F)(F)F)cc(C(F)(F)F)c2)c2ncc(OCCCC(=O)[O-])cn2)C[C@H]1CC.[Ca+2] [Amorphous obicetrapib hemicalcium Batch #2],Concentration in Solution,[1]; 15 mins,90 µg/mL
same,Concentration in Solution,[1]; 30 mins,140 µg/mL
same,Concentration in Solution,[1]; 60 mins,229 µg/mL
same,Concentration in Solution,[1]; 90 mins,293 µg/mL
same,Concentration in Solution,[1]; 120 mins,387 µg/mL
same,Concentration in Solution,[2]; 15 mins,502 µg/mL
same,Concentration in Solution,[2]; 30 mins,618 µg/mL
same,Concentration in Solution,[2]; 60 mins,628 µg/mL
same,Concentration in Solution,[2]; 90 mins,658 µg/mL
same,Concentration in Solution,[2]; 120 mins,642 µg/mL
CCOC(=O)N1c2ccc(C(F)(F)F)cc2[C@@H](N(Cc2cc(C(F)(F)F)cc(C(F)(F)F)c2)c2ncc(OCCCC(=O)O)cn2)C[C@H]1CC [Obicetrapib 10 mg],"Any TEAEs by maximum severity: Mild, (%)",[3]; (%),(20.5) %
same,"Any TEAEs by maximum severity: Moderate, (%)",[3]; (%),(7.7) %
same,"Any TEAEs by maximum severity: Severe, (%)",[3]; (%),(10.3) %
same,"Any TEAEs leading to death, (%)",[3]; (%),(0.0) %
same,"Any serious TEAEs (TESAEs), (%)",[3]; (%),(5.1) %
same,"Any study drug-related TEAEs by maximum severity: Mild, (%)",[3]; (%),(10.3) %
same,"Any study drug-related TEAEs by maximum severity: Moderate, (%)",[3]; (%),(5.1) %
same,"Any study drug-related TEAEs by maximum severity: Severe, (%)",[3]; (%),(5.1) %
same,"Any study drug-related TEAEs leading to discontinuation of study drug, (%)",[3]; (%),(5.1) %
same,"Any study drug-related TEAEs, (%)",[3]; (%),(2.6) %
same,"Any study drug-related TESAEs, (%)",[3]; (%),(2.6) %
same,"Any treatment-emergent AEs (TEAEs), (%)",[3]; (%),(20.5) %
same,"Any TEAEs leading to discontinuation of study drug, (%)","[3]; (%), first line with this label (r25)",(0.0) %
same,"Any TEAEs leading to discontinuation of study drug, (%)","[3]; (%), last line of the table (r40)",(0.0) %
same,"Any TEAEs by maximum severity: Mild, e",[3]; column e,20
same,"Any TEAEs leading to death, e",[3]; column e,0
same,"Any serious TEAEs (TESAEs), e",[3]; column e,2
same,"Any study drug-related TEAEs by maximum severity: Mild, e",[3]; column e,4
same,"Any study drug-related TEAEs leading to discontinuation of study drug, e",[3]; column e,5
same,"Any study drug-related TESAEs, e",[3]; column e,1
same,"Any treatment-emergent AEs (TEAEs), e",[3]; column e,20
same,"Any TEAEs leading to discontinuation of study drug, e","[3]; column e, last line of the table (r40)",0
same,"Lp(a) Day 84, Mean",Lp(a); Day 84,74.75 nmol/L
same,"Lp(a) Day 84, Median",Lp(a); Day 84,20.85 nmol/L
same,Lp(a) Day 84 Maximum,Lp(a); Day 84,327.7 nmol/L
same,Lp(a) Day 84 Minimum,Lp(a); Day 84,2.8 nmol/L
same,"Lp(a) Change from Baseline to Day 84, Mean",Lp(a),-27.66 nmol/L
same,"Lp(a) Change from Baseline to Day 84, Median",Lp(a),-10.95 nmol/L
same,Lp(a) Change from Baseline to Day 84 Maximum,Lp(a),3.0 nmol/L
same,Lp(a) Change from Baseline to Day 84 Minimum,Lp(a),-148.8 nmol/L
same,Lp(a) Percent Change from Baseline to Day 84 (%) Maximum,Lp(a),103.4%
same,Lp(a) Percent Change from Baseline to Day 84 (%) Minimum,Lp(a),−84.6%
same,"Lp(a) Percent Change from Baseline to Day 84 (%), Mean",Lp(a),−24.44%
same,"Lp(a) Percent Change from Baseline to Day 84 (%), Median",Lp(a),−22.75%

# — patent US20250186442A1, “Obicetrapib and Ezetimibe Combination Treatment and Fixed Dose Pharmaceutical Compositions” (NewAmsterdam Pharma B.V., priority 2022, published 2025)
